In one experiment the target is T1, AgWH2A (Agarivorans gilvus, UniProt A0A2Z4WWH8).
T1 construct: gene lacZ; pET29a (SalI/XhoI), E. coli BL21(DE3) pLysS, Ni-NTA (vector tags kept)
T1 sequence (A0A2Z4WWH8 1-753): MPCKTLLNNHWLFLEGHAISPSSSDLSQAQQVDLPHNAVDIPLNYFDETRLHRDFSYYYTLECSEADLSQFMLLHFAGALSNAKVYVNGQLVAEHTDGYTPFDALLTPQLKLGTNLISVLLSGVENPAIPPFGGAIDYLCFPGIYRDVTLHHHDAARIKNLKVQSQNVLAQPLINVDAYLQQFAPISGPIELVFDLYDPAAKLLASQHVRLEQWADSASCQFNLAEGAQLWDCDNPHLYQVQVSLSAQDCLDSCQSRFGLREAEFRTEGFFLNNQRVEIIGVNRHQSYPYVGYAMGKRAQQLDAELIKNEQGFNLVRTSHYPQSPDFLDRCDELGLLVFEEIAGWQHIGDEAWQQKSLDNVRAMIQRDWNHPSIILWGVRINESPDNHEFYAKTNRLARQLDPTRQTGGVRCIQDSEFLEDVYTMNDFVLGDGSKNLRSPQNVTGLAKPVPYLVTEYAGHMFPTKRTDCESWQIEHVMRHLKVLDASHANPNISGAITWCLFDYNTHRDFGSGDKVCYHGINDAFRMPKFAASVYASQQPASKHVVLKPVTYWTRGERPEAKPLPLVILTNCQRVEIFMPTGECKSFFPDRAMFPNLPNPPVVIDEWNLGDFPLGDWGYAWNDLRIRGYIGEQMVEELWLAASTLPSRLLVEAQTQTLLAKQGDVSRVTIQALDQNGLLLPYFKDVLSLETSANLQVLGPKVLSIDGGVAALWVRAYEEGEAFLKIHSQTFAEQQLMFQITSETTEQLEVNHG
The experiment can be described thus: TLC of products. The class given is biochemical. The following applies: 10 mM potassium phosphate pH 7.5, 30°C, 4 h; positive control enzyme.

In the next experiment the test system is T2, CL4994.
T2 construct: pET29a (KpnI/XhoI), E. coli BL21(DE3) pLysS, Ni-NTA (vector tags kept); GH2
As to the kind of experiment: agarotriose consumption, non-linear regression. The following applies: 10 mM potassium phosphate pH 7.0, 30°C, 10 min, 0.5–7.5 mg/ml substrate. The class given is biochemical, Cohnella sp. LGH.

A further experiment has as its system T3, CL5012.
T3 construct: pET29a (NdeI/XhoI), E. coli BL21(DE3) pLysS, Ni-NTA (C-terminal His tag likely); GH117
As to the kind of experiment: L-AHG release, non-linear regression. The conditions noted are these: 10 mM Tris-HCl pH 8.0, 35°C, 10 min, 0.5–7.5 mg/ml substrate. The class given is biochemical, Cohnella sp. LGH.

Take `OC[C@H]1O[C@@H](O[C@H]2[C@H]3OC[C@@H]2O[C@@H](O[C@H]2[C@@H](O)[C@@H](CO)OC(O)[C@@H]2O)[C@H]3O)[C@H](O)[C@@H](O)[C@H]1O` (stereo partly drawn) [agarotriose]: the TLC of products entry on AgWH2A is “depolymerization products of agarotriose by the reported ABG AgWH2A”. Besides, the Km with CL4994 was found to be 3.90 mg ml^–1.

In the case of `OC[C@H]1OC(O)[C@H](O)[C@@H](O[C@@H]2O[C@H]3CO[C@@H]([C@@H]2O)[C@@H]3O)[C@H]1O` (stereo partly drawn) [neoagarobiose], the Km in the experiment on CL5012 was 4.45 mg ml^–1.

Source of the values: PMC9008576, “Characterization of Agarolytic Pathway in a Terrestrial Bacterium Cohnella sp. LGH” (Frontiers in Microbiology, 2022).
